The numbers were not newly measured in patent publication US20150297556A1 (priority 2014, published 2015), which cites them from elsewhere.

As to “(1S,5S)-2,6,6-Trimethylbicyclo[3.1.1]hept-2-ene ((−)-α-Pinene)”, the human pulmonary uptake is reported as 60%.
